The results in this text go back to patent publication US10799605B2 (3B PHARMACEUTICALS GMBH, priority 2014, dated 2020).

Like-named read-outs stand apart in the source and are kept apart here.

Assay [1] has as its target T1, NTR1 (Homo sapiens (Human), UniProt P30989). The experiment in a line: Functional Ca2+ mobilisation assay (example part I). In kind it is cell-based. The text has this: Ca^2+ ions are usually kept at nanomolar levels in the cytosol of cells, and act in a number of signal transduction pathways as second messengers. […] Changes in calcium ion concentration in standard assay protocols can be readily detected with fluorescent dyes that emit light when changes in intracellular Ca^2+ ion concentration occur. Given the transient nature of these responses, they are often read with instrumentation that has ‘inject and read’ capability.
(§1) HT29 or NTR1-expressing HEK293 cells were trypsinized and seeded into black flat clear-bottom 96-well plates (Corning, Amsterdam, The Netherlands) at […] cells per well. After 24 h incubation at 37° C. and 5% CO2, cells were washed twice with wash buffer (130 mM NaCl, 5 mM KCl, 10 mM Hepes, 2 mM CaCl2, 10 mM Glucose, pH 7.4) and loaded with 100 μl of Ca5 dye (Molecular Devices, Biberach, Germany) for 1 h at 37° C. and 5% CO2. For agonist assays, serial dilutions of agonistic substances were added to the cells loaded with dye and the change of the fluorescent signal was recorded continually for approx. 90 s using a FlexStation II (Molecular Devices, Biberach, Germany). Addition of wash buffer served as a control. Thus, EC50 concentrations for each conjugate were computed and provided a measure for the potency of the substance. For antagonist assays, cells loaded with 100 μl of Ca5-dye were pre-incubated with serial dilutions of antagonistic substances for 30 min, before the EC80-concentration of agonist was added to the cells and the change of the fluorescent signal was recorded continually for approx. 90 s. Thus, IC50 concentrations were computed for each conjugate and provided a measure for the inhibitory activity of the conjugates at the NTR1.
(Calcium assays in cells follow changes in intracellular calcium, usually with a dye or a luminescent sensor.)

Assay [2] deals with T1, NTR1. Briefly: Radioligand binding assay NTR1 (example part I). The procedure: In order to determine the binding affinity of compounds comprising a radiolabel for NTR1, a radioligand binding assay was carried out. A radioligand is a radioactive biochemical substance that is used for diagnosis or for research-oriented study of cellular receptor systems of the body. In […] systems it is often used to quantify the binding of a test molecule to the binding site of radioligand. The higher the affinity of the molecule, the more radioligand is displaced from the binding site. The amount of bound radioligand can be measured by scintillation counting and thereby quantified. This assay is commonly used to calculate binding constants of molecules to receptors.
The NTR1 radioligand binding assay was performed by Cerep (Celle l'Evescault, France; Catalog reference 0109) according to Vita et al., FEBS Lett., 1993, 317, 139-142. NTR1 was prepared from CHO cells recombinantly expressing the human receptor and incubated with 0.05 nM ^125I-(Tyr^3-neurotensin) and serial dilutions of the test compounds. […] The result for each test compound is expressed as IC50 concentration and provides a measure for the affinity of the test compound for NTR1.

In assay [3] the target is T1, NTR1. The experiment in a line: Functional Ca2+ mobilisation assay (example part II). In kind it is cell-based. The note with it: antagonist assay.
Text: Ca^2+ ions are usually kept at nanomolar levels in the cytosol of cells, and act in a number of signal transduction pathways as second messengers. […] Changes in calcium ion concentration in standard assay protocols can be readily detected with fluorescent dyes that emit light when changes in intracellular Ca2^+ ion concentration occur. Given the transient nature of these responses, they are often read with instrumentation that has ‘inject and read’ capability.
as §1, with “compound” for “conjugate”, “compounds” for “conjugates”

Where [4] appears, read: agonist assay, * bell-shaped curves, EC50 from ascending part of the curve, read-out: Agonistic Effect EC50.
Where [5] appears, read: antagonist assay, 30 min pre-incubation, EC80-concentration of agonist, read-out: Antagonistic Effect IC50.
The mark [6] stands for this setting: 0.05 nM 125I-(Tyr3-neurotensin), 60 min at 4° C., read-out: IC50.

T1 sequence (P30989 whole entry): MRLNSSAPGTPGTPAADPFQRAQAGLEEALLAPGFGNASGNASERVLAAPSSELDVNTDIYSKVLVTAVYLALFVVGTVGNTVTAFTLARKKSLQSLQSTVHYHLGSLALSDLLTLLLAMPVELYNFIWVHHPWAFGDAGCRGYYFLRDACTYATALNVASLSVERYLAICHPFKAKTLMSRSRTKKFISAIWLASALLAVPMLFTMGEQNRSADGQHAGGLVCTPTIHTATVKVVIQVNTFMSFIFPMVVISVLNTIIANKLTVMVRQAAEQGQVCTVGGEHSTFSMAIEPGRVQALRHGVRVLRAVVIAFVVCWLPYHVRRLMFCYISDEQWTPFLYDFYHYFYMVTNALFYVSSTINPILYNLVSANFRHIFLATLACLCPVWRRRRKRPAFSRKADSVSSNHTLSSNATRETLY

What is called EC50 is the concentration that produces a half-maximal response. In general, IC50 refers to the midpoint of a concentration-inhibition curve. As for `COc1cccc(OC)c1-c1cc(C(=O)NC2(C(=O)O)C3CC4CC(C3)CC2C4)nn1-c1ccc(C(=O)N(C)CCCN(C)CCCN(C)C(=O)CCCNC(=O)[C@H](CCCCNC(=O)CN2CCN(CC(=O)O)CCN(CC(=O)O)CCN(CC(=O)O)CC2)NC(=O)CCCC(=O)N(C)CCCN(C)CCCN(C)C(=O)c2ccc(-n3nc(C(=O)NC4(C(=O)O)C5CC6CC(C5)CC4C6)cc3-c3c(OC)cccc3OC)c(C(C)C)c2)cc1C(C)C` (some centres unmarked) [(13), 1206-Glutar-Lys(DOTA)-GABA-1206], in assay [1] (setting [4]), the half-maximal effective concentration (EC50) is greater than 50000 nM. Moreover, the concentration for half-maximal inhibition (IC50) in assay [1] (setting [5]) is 6.1 nM; in assay [2] (setting [6]), 2.2 nM.
In assay [1], `COc1cccc(OC)c1-c1cc(C(=O)NC2(C(=O)O)C3CC4CC(C3)CC2C4)nn1-c1ccc(C(=O)N(C)CCCN(C)CCCN(C)C(=O)CCCC(=O)NCCCC[C@H](NC(=O)CCC(=O)NCCCOCCOCCOCCCNC(=O)CCC(=O)NCCCOCCOCCOCCCNC(=O)CCC(=O)NCCCOCCOCCOCCCNC(=O)[C@H](CCCCNC(=O)CN2CCN(CC(=O)O)CCN(CC(=O)O)CCN(CC(=O)O)CC2)NC(=O)CCC(=O)NCCCOCCOCCOCCCNC(=O)CCC(=O)NCCCOCCOCCOCCCNC(=O)CCC(=O)NCCCOCCOCCOCCCNC(=O)CCCC(=O)N(C)CCCN(C)CCCN(C)C(=O)c2ccc(-n3nc(C(=O)NC4(C(=O)O)C5CC6CC(C5)CC4C6)cc3-c3c(OC)cccc3OC)c(C(C)C)c2)C(N)=O)cc1C(C)C` (some centres unmarked) [(15), 1206-Glutar-Ttds3-Lys(DOTA)-Ttds3-(ε-Lys-NH2)-Glutar-1206] gave an EC50 greater than 50000 nM and an IC50 of 2.3 nM. This compound also showed an IC50 in assay [2] of 4.7 nM.
On the same counts, the results for `COc1cccc(OC)c1-c1cc(C(=O)NC2(C(=O)O)C3CC4CC(C3)CC2C4)nn1-c1ccc(C(=O)N(C)CCCN(C)CCCN(C)C(=O)CCN2C(=O)CC(SC[C@H](NC(=O)CCC(=O)NCCCOCCOCCOCCCNC(=O)CCC(=O)NCCCOCCOCCOCCCNC(=O)CCC(=O)NCCCOCCOCCOCCCNC(=O)[C@H](CCCCNC(=O)CN3CCN(CC(=O)O)CCN(CC(=O)O)CCN(CC(=O)O)CC3)NC(=O)CCC(=O)NCCCOCCOCCOCCCNC(=O)CCC(=O)NCCCOCCOCCOCCCNC(=O)CCC(=O)NCCCOCCOCCOCCCNC(=O)CCCNC(=O)[C@@H](NC(=O)[C@H](CCCNC(=N)N)NC(=O)[C@H](C)NC(=O)[C@@H](NC(=O)[C@H](CCCCN)NC(=O)[C@H](CCC(N)=O)NC(=O)[C@H](C)NC(=O)[C@H](CC(C)C)NC(=O)[C@@H](NC(=O)[C@H](CCC(N)=O)NC(=O)[C@H](CC(C)C)NC(=O)[C@H](CC(=O)O)NC(=O)CNC(=O)[C@H](CCCNC(=N)N)NC(=O)[C@H](CC(C)C)NC(=O)[C@H](CC(N)=O)NC(=O)[C@@H]3CCCN3C(=O)[C@@H](NC(=O)[C@H](C)NC(=O)[C@H](CC(N)=O)NC(C)=O)C(C)C)C(C)C)C(C)C)[C@@H](C)O)C(N)=O)C2=O)cc1C(C)C` (some centres unmarked) [(23)] are greater than 50000 nM, 15 nM and 6.7 nM.
Take `COc1cccc(OC)c1-c1cc(C(=O)NC2(C(=O)O)C3CC4CC(C3)CC2C4)nn1-c1ccc(C(=O)N(C)CCCN(C)CCCN(C)C(=O)CCCC(=O)NCCCCCC(=O)N[C@@H](CCCCNC(=O)CN2CCN(CC(=O)O)CCN(CC(=O)O)CCN(CC(=O)O)CC2)C(=O)N[C@@H](CCCCNC(=O)CCCC(=O)N(C)CCCN(C)CCCN(C)C(=O)c2ccc(-n3nc(C(=O)NC4(C(=O)O)C5CC6CC(C5)CC4C6)cc3-c3c(OC)cccc3OC)c(C(C)C)c2)C(N)=O)cc1C(C)C` (some centres unmarked) [(14), 1206-Glutar-Ahx-Lys(DOTA)-(ε-Lys-NH2)-Glutar-1206]: the EC50 in assay [1] (setting [4]) was greater than 50000 nM. For the same compound, the IC50 in assay [1] (setting [5]) was 2.3 nM; in assay [2] (setting [6]), 2.4 nM.
For `COc1cccc(OC)c1-c1cc(C(=O)NC2(C(=O)O)C3CC4CC(C3)CC2C4)nn1-c1ccc(C(=O)N(C)CCCN(C)CCCN(C)C(=O)CCCNC(=O)CCC(=O)NCCCOCCOCCOCCCNC(=O)[C@H](CCCCNC(=O)CN2CCN(CC(=O)O)CCN(CC(=O)O)CCN(CC(=O)O)CC2)NC(=O)CCC(=O)NCCCOCCOCCOCCCNC(=O)CCCC(=O)N(C)CCCN(C)CCCN(C)C(=O)c2ccc(-n3nc(C(=O)NC4(C(=O)O)C5CC6CC(C5)CC4C6)cc3-c3c(OC)cccc3OC)c(C(C)C)c2)cc1C(C)C` (some centres unmarked) [(12), 1206-Glutar-Ttds-Lys(DOTA)-Ttds-GABA-1206] the same measures were greater than 50000 nM, 2.5 nM and 2.5 nM.
With `COc1cccc(OC)c1-c1cc(C(=O)NC2(C(=O)O)C3CC4CC(C3)CC2C4)nn1-c1ccc(C(=O)N(C)CCCN(C)CCCN(C)C(=O)CCCC(=O)NCCCOCCOCCOCCCNC(=O)CCC(=O)NCCCOCCOCCOCCCNC(=O)CCC(=O)NCCCOCCOCCOCCCNC(=O)CCC(=O)N[C@@H](CC(N)=O)C(=O)N[C@@H](C)C(=O)N[C@H](C(=O)N2CCC[C@H]2C(=O)N[C@@H](CC(N)=O)C(=O)N[C@@H](CC(C)C)C(=O)N[C@@H](CCCNC(=N)N)C(=O)NCC(=O)N[C@@H](CC(=O)O)C(=O)N[C@@H](CC(C)C)C(=O)N[C@@H](CCC(N)=O)C(=O)N[C@H](C(=O)N[C@@H](CC(C)C)C(=O)N[C@@H](C)C(=O)N[C@@H](CCC(N)=O)C(=O)N[C@@H](CCCCN)C(=O)N[C@H](C(=O)N[C@@H](C)C(=O)N[C@@H](CCCNC(=N)N)C(=O)N[C@H](C(=O)NCCCC(=O)NCCCOCCOCCOCCCNC(=O)CCC(=O)N[C@@H](CCCCNC(=O)CN2CCN(CC(=O)O)CCN(CC(=O)O)CCN(CC(=O)O)CC2)C(N)=O)[C@@H](C)O)C(C)C)C(C)C)C(C)C)cc1C(C)C` (some centres unmarked) [(24)], in assay [1], the EC50 was greater than 50000 nM and the half-maximal inhibitory concentration (IC50) was found to be 38 nM. Besides, the IC50 in assay [2] turned out to be 9.9 nM.
As for `COc1cccc(OC)c1-c1cc(C(=O)NC2(C(=O)NCCNC(=O)CN3CCN(CC(=O)O)CCN(CC(=O)O)CCN(CC(=O)O)CC3)C3CC4CC(C3)CC2C4)nn1-c1ccc(C(=O)N(C)CCCN(C)C)cc1C(C)C` (centres unmarked) [(XVII), 5-(2,6-Dimethoxy-phenyl)-1-{4-[(3-dimethylamino-propyl)-methyl-carbamoyl]-2-isopropyl-phenyl}-1H-pyrazole-3-carboxylic acid [2-(2-DOTA-amino-ethylcarbamoyl)-adamantan-2-yl]-amide, reference compound], in assay [3], the “IC50 [nM] Ca” value is “inactivity”.
The compound `COc1cccc(OC)c1-c1cc(C(=O)N[C@H](C(=O)O)C2CCCCC2)nn1-c1ccc(C(=O)N(C)CCCN(C)CCCN(C)C(=O)CN2CCN(CC(=O)O)CCN(CC(=O)O)CCN(CC(=O)O)CC2)cc1C(C)C` [(IVa), (S)-2-{[1-{4-[(3-{[3-(DOTA-methyl-amino)-propyl]-methyl-amino}-propyl)-methyl-carbamoyl]-2-isopropyl-phenyl}-5-(2,6-dimethoxy-phenyl)-1H-pyrazole-3-carbonyl]-amino}-cyclohexyl-acetic acid] came in with an IC50 in assay [3] of 125 nM.
